According to patent US10624871B2, “Bismuth(III) compounds and methods thereof” (priority 2016, dated 2020):

Key:
NDM-1 = NDM-1 (Klebsiella pneumoniae, UniProt C7C422); assay: IC50 enzyme inhibition assay, MER hydrolysis; type: biochemical; settings: Zn2-NDM-1 50 nM, 1 h preincubation at 25° C., 100 μM MER
Text: (§1) […]. The initial rate were extracted and calculated from each reaction curves.

VIM-2 = VIM-2 (Escherichia coli, UniProt Q5U7L7); assay: IC50 enzyme inhibition assay, MER hydrolysis; type: biochemical; settings: Zn2-VIM-2, 1 h preincubation at 25° C., 100 μM MER
Text: as §1

E. coli (NDM-1+) = assay: Microdilution MIC and MBC assay, checkerboard FICI; type: cell-based; settings: for MBC of MER with Bi(III) compound / MIC of MER with Bi(III) compound: Bi(III) compound at 32 μg mL^−1, E. coli (NDM-1+); for FIC Index: MER with Bi(III) compound, E. coli (NDM-1+)
K. pneumonia (NDM-1+) = assay: Microdilution MIC and MBC assay, FICI; type: cell-based; settings: for MBC of MER with Bi(III) compound / MIC of MER with Bi(III) compound: Bi(III) compound at 32 μg mL^−1, K. pneumonia (NDM-1+); for FIC Index: MER with Bi(III) compound, K. pneumonia (NDM-1+)
C. freundii (NDM-1+) = assay: Microdilution MIC and MBC assay, FICI; type: cell-based
E. coli (VIM-2+) = assay: Microdilution MIC and MBC assay, FICI; type: cell-based
E. coli (IMP-4+) = assay: Microdilution MIC and MBC assay, FICI; type: cell-based
[1] = Solubility of the bismuth complexes (Table 1); settings: solvent named, or insoluble
[2] = Bi(III) compound at 32 μg mL^−1, C. feudii (NDM-1+)
[3] = Bi(III) compound at 32 μg mL−1, E. coli (VIM-2+)
[4] = Bi(III) compound at 32 μg mL−1, E. coli (IMP-4+)

Sequence of NDM-1 (C7C422 whole entry, looked up): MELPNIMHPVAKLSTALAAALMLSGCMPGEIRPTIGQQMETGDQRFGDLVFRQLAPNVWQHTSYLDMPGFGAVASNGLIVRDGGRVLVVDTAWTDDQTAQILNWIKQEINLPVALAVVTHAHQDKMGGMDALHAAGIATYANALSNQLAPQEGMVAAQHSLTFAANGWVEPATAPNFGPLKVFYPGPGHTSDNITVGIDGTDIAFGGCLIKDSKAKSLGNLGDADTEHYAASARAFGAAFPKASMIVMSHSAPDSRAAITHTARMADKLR

Compound	MBC of MER with Bi(III) compound (E. coli (NDM-1+))	MIC of MER with Bi(III) compound (E. coli (NDM-1+))	FIC Index (E. coli (NDM-1+))	Solubility [1]	other results
O=[N+]([O-])[O][Bi]([O][N+](=O)[O-])[O][N+](=O)[O-] [Bi(NO3)3]	4 µg/mL	2 µg/mL	0.266	–	IC50 (NDM-1): 1.89 ± 0.23 µM; IC50 (VIM-2): 2.45 ± 0.63 µM; MBC of MER with Bi(III) compound (K. pneumonia (NDM-1+)): 1 µg/mL; MIC of MER with Bi(III) compound (K. pneumonia (NDM-1+)): 1 µg/mL; FIC Index (K. pneumonia (NDM-1+)): 0.125; MBC of MER with Bi(III) compound (C. freundii (NDM-1+); [2]): 4 µg/mL; MIC of MER with Bi(III) compound (C. freundii (NDM-1+); [2]): 2 µg/mL; FIC Index (C. freundii (NDM-1+); MER with Bi(III) compound, C. freundii (NDM-1+)): 0.375; MBC of MER with Bi(III) compound (E. coli (VIM-2+); [3]): 2 µg/mL; MIC of MER with Bi(III) compound (E. coli (VIM-2+); [3]): 1 µg/mL; FIC Index (E. coli (VIM-2+); MER with Bi(III) compound, E. coli (VIM-2+)): 0.063; MBC of MER with Bi(III) compound (E. coli (IMP-4+); [4]): 8 µg/mL; MIC of MER with Bi(III) compound (E. coli (IMP-4+); [4]): 4 µg/mL; FIC Index (E. coli (IMP-4+); MER with Bi(III) compound, E. coli (IMP-4+)): 0.313
C1=CC2=C(c3ccccc3)c3ccc4[n]3[Bi+][n]3c(ccc3=C(c3ccccc3)C3=NC(=C4c4ccccc4)C=C3)=C(c3ccccc3)C1=N2 [Complex 1]	8 µg/mL	4 µg/mL	0.266	–	MBC of MER with Bi(III) compound (K. pneumonia (NDM-1+)): 16 µg/mL; MIC of MER with Bi(III) compound (K. pneumonia (NDM-1+)): 4 µg/mL; FIC Index (K. pneumonia (NDM-1+)): 0.375
O=C(O)c1ccccc1[S-].O=C([O-])c1ccccc1[S-].[Bi+3] [Complex 7]	2 µg/mL	1 µg/mL	0.250	DMSO	–
O.O.O=C([O-])CN(CC(=O)[O-])CC(=O)[O-].[Bi+3] [Complex 11]	8 µg/mL	4 µg/mL	–	–	–
[Bi+3].[O-]c1c([O-])c(Br)c(Br)c(Br)c1Br.[O-]c1c([O-])c(Br)c(Br)c(Br)c1Br [Complex 13]	2 µg/mL	1 µg/mL	0.250	DMSO	–
O=[N+]([O-])[O-].O=[N+]([O-])[O-].[Bi+3].c1ccc(-c2ccccn2)nc1.c1ccc(-c2ccccn2)nc1 [Complex 16]	8 µg/mL	2 µg/mL	–	–	–
NCC(=O)[O-].NCC(=O)[O-].NCC(=O)[O-].[Bi+3] [Complex 18]	16 µg/mL	8 µg/mL	–	–	–
CNC(=C[N+](=O)[O-])NCCSCc1ccc(CN(C)C)o1.O=C([O-])CC(O)(CC(=O)[O-])C(=O)[O-].[Bi+3] [RBC, ranitidine bismuth citrate]	4 µg/mL	2 µg/mL	–	–	–
bismuth subgallate [Complex 14]	8 µg/mL	4 µg/mL	0.375	Insoluble	–
